According to ChEMBL document CHEMBL4507319 (2021):

How the values were obtained:
[1] = system: ALK tyrosine kinase receptor (Homo sapiens), Q9UM73 [C1156Y]; details: Compound concentration 1000.0 nM
[2] = biological target: Cyclin-dependent kinase 7 (Homo sapiens) (UniProt P50613); details: Compound concentration 1000.0 nM
[3] = biological target: Serine/threonine-protein kinase Chk2 (Homo sapiens) (UniProt O96017); details: Compound concentration 1000.0 nM
[4] = biological target: Mitogen-activated protein kinase 15 (Homo sapiens) (UniProt Q8TD08); details: Compound concentration 1000.0 nM
[5] = biological target: Fibroblast growth factor receptor 4 (Homo sapiens) (UniProt P22455); details: Compound concentration 1000.0 nM
[6] = biological target: G protein-coupled receptor kinase 4 (Homo sapiens) (UniProt P32298); details: Compound concentration 1000.0 nM
[7] = system: Mast/stem cell growth factor receptor Kit (Homo sapiens), P10721 [D816H]; details: Compound concentration 1000.0 nM
[8] = system: Mast/stem cell growth factor receptor Kit (Homo sapiens), P10721 [L576P]; details: Compound concentration 1000.0 nM
[9] = biological target: T1, Serine/threonine-protein kinase STK11 (Homo sapiens) (UniProt Q15831); details: Compound concentration 1000.0 nM
T1 sequence (whole entry): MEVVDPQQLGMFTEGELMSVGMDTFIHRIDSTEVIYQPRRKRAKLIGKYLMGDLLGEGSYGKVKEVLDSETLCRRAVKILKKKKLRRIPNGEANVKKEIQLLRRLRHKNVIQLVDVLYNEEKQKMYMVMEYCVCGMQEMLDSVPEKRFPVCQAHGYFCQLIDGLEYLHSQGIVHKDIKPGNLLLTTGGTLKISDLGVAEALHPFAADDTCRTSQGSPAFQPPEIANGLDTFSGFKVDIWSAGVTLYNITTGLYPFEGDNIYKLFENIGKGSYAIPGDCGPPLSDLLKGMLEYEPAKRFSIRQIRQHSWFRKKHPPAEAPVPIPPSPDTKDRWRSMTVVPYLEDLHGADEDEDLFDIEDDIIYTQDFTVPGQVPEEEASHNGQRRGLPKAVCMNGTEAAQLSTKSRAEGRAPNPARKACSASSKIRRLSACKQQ

[10] = biological target: Mitogen-activated protein kinase kinase kinase 15 (Homo sapiens) (UniProt Q6ZN16); details: Compound concentration 1000.0 nM
[11] = biological target: Mitogen-activated protein kinase kinase kinase 3 (Homo sapiens) (UniProt Q99759); details: Compound concentration 1000.0 nM
[12] = biological target: Dual specificity mitogen-activated protein kinase kinase 2 (Homo sapiens) (UniProt P36507); details: Compound concentration 1000.0 nM
[13] = biological target: Serine/threonine-protein kinase MRCK beta (Homo sapiens) (UniProt Q9Y5S2); details: Compound concentration 1000.0 nM
[14] = biological target: Cyclin-dependent kinase 16 (Homo sapiens) (UniProt Q00536); details: Compound concentration 1000.0 nM
[15] = biological target: Cyclin-dependent kinase 2 homolog (Plasmodium falciparum (isolate 3D7)) (UniProt P61075); details: Compound concentration 1000.0 nM
[16] = biological target: Phosphorylase b kinase gamma catalytic chain, skeletal muscle/heart isoform (Homo sapiens) (UniProt Q16816); details: Compound concentration 1000.0 nM
[17] = biological target: Phosphatidylinositol 4-phosphate 3-kinase C2 domain-containing subunit beta (Homo sapiens) (UniProt O00750); details: Compound concentration 1000.0 nM
[18] = biological target: Phosphatidylinositol 4,5-bisphosphate 3-kinase catalytic subunit alpha isoform (Homo sapiens) (UniProt P42336); details: Compound concentration 1000.0 nM
[19] = biological target: cAMP-dependent protein kinase catalytic subunit beta (Homo sapiens) (UniProt P22694); details: Compound concentration 1000.0 nM
[20] = biological target: Serine/threonine-protein kinase SIK3 (Homo sapiens) (UniProt Q9Y2K2); details: Compound concentration 1000.0 nM
[21] = biological target: Proto-oncogene tyrosine-protein kinase ROS (Homo sapiens) (UniProt P08922); details: Compound concentration 1000.0 nM
[22] = biological target: Ribosomal protein S6 kinase alpha-6 (Homo sapiens) (UniProt Q9UK32); details: Compound concentration 1000.0 nM
[23] = biological target: T2, Serine/threonine-protein kinase ULK2 (Homo sapiens) (UniProt Q8IYT8); details: Compound concentration 1000.0 nM
T2 sequence (whole entry): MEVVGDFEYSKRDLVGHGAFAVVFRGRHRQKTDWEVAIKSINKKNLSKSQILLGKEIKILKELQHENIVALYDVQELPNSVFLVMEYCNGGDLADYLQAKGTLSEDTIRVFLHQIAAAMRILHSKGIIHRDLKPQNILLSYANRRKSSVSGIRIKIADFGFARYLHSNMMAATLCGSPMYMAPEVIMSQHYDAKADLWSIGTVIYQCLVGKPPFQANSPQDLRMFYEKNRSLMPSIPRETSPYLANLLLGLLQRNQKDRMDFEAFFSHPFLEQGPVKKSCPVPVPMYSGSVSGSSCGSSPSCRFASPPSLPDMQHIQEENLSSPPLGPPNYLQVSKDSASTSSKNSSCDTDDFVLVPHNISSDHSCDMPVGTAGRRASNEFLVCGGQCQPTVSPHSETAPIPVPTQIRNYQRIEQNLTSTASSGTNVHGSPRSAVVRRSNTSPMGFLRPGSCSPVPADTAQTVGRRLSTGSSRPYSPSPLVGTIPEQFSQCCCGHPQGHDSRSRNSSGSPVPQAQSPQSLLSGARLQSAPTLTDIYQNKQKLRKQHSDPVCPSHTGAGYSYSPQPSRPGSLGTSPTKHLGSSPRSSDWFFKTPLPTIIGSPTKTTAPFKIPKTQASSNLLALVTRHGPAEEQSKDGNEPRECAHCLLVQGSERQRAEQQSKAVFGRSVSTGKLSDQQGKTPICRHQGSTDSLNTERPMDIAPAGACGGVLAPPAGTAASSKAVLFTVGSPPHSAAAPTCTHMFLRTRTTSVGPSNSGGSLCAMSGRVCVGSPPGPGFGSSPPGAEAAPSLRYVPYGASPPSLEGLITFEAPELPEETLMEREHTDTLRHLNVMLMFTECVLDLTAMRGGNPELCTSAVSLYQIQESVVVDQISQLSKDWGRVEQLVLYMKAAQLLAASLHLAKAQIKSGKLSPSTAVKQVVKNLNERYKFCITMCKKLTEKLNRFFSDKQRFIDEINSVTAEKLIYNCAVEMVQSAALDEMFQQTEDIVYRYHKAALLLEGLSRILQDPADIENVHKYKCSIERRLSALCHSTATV

[24] = biological target: Histamine H1 receptor (Homo sapiens) (UniProt P35367); details: Compound concentration 10.0 uM
[25] = biological target: Alpha-2A adrenergic receptor (Homo sapiens) (UniProt P08913); details: Compound concentration 10.0 uM

Sequence of Cyclin-dependent kinase 7 (Homo sapiens) (P50613 whole entry): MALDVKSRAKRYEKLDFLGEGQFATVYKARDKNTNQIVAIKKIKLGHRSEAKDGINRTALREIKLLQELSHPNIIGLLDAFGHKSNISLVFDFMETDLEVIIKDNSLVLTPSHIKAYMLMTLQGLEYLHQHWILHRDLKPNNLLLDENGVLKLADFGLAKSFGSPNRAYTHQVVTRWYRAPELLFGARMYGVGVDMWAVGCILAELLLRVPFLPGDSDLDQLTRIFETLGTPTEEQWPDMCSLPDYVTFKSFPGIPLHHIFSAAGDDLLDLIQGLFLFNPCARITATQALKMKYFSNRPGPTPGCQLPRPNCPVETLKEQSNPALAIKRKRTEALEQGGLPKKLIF
Sequence of Serine/threonine-protein kinase Chk2 (Homo sapiens) (O96017 whole entry): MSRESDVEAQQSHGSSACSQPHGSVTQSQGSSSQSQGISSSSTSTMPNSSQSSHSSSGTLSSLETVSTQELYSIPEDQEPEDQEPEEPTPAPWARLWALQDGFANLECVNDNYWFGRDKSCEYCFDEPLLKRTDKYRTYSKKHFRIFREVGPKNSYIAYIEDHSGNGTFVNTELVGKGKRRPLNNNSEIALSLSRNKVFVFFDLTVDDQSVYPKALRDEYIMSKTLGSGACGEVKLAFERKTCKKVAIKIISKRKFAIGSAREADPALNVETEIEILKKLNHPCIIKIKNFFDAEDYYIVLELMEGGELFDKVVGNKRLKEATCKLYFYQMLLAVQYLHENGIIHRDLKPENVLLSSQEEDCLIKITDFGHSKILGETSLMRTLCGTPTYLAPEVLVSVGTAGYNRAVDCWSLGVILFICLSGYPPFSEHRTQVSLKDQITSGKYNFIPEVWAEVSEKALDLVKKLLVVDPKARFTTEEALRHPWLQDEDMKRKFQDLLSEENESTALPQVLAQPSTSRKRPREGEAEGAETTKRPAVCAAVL
Sequence of Serine/threonine-protein kinase MRCK beta (Homo sapiens) (Q9Y5S2 whole entry): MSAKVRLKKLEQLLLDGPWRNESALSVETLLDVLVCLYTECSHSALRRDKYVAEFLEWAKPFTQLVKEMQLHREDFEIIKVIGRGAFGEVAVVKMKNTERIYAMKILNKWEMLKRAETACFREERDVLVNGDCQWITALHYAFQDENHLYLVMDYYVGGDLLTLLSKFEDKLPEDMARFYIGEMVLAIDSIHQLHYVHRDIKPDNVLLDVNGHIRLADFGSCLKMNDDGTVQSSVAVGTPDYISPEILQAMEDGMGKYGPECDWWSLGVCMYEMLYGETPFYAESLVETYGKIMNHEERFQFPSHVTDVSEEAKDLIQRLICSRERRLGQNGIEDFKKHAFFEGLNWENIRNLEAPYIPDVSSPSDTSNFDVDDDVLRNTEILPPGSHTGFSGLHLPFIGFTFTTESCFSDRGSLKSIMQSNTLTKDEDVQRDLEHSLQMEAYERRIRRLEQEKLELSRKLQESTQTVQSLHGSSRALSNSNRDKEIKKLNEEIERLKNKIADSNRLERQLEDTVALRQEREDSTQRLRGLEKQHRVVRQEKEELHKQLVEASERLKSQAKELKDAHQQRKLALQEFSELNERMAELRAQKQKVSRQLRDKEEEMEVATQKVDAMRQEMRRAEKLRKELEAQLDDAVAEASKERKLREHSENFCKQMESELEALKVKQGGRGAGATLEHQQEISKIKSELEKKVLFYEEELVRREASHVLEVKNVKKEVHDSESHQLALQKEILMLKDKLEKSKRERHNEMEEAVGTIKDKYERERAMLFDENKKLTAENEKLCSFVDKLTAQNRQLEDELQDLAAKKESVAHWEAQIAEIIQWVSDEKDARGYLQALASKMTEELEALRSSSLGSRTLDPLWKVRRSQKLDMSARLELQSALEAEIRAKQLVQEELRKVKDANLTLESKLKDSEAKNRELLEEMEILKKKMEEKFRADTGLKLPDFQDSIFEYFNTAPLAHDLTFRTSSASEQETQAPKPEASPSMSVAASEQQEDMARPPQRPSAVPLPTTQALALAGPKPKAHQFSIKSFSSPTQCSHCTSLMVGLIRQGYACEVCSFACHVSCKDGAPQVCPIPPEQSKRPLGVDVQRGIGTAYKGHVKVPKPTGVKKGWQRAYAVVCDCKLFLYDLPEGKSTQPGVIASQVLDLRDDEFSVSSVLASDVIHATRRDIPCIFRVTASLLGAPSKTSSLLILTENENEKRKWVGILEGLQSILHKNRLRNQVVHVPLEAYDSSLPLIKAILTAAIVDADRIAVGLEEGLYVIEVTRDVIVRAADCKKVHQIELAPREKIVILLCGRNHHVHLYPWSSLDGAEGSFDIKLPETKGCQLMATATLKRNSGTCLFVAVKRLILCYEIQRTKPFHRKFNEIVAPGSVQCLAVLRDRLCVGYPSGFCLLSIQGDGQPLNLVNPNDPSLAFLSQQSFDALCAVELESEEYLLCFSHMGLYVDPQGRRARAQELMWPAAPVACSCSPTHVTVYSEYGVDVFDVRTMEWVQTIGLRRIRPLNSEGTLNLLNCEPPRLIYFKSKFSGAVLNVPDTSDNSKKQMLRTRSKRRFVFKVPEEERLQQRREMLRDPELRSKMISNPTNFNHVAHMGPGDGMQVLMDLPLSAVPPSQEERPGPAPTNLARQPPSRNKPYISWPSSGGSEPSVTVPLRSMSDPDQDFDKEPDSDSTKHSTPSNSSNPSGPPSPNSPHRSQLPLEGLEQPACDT
Sequence of Mast/stem cell growth factor receptor Kit (Homo sapiens), P10721 [D816H] (P10721 whole entry D816H): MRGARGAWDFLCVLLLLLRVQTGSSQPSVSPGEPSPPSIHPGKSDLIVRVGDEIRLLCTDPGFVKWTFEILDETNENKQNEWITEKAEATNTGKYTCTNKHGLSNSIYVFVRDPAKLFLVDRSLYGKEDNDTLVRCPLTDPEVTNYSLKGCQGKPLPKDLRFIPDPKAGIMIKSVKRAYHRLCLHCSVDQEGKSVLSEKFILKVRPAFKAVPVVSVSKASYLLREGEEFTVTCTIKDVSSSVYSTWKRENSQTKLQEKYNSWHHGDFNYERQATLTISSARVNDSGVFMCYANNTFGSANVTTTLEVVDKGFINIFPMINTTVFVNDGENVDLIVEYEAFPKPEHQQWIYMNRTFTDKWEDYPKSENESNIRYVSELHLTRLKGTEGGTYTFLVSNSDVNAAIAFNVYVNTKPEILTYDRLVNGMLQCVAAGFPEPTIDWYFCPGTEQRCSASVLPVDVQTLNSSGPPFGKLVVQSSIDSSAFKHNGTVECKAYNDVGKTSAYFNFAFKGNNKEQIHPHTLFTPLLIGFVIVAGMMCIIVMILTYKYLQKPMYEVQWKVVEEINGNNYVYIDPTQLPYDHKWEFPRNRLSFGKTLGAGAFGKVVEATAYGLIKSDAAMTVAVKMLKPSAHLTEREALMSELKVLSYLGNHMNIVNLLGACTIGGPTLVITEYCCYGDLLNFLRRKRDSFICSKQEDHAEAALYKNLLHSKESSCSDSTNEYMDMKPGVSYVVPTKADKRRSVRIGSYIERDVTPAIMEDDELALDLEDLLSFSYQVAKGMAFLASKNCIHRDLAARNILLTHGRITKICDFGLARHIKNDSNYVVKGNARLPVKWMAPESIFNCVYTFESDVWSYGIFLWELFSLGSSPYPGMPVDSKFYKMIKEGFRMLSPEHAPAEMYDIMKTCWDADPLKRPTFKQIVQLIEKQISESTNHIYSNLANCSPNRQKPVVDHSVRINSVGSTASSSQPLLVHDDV
Sequence of Mitogen-activated protein kinase 15 (Homo sapiens) (Q8TD08 whole entry): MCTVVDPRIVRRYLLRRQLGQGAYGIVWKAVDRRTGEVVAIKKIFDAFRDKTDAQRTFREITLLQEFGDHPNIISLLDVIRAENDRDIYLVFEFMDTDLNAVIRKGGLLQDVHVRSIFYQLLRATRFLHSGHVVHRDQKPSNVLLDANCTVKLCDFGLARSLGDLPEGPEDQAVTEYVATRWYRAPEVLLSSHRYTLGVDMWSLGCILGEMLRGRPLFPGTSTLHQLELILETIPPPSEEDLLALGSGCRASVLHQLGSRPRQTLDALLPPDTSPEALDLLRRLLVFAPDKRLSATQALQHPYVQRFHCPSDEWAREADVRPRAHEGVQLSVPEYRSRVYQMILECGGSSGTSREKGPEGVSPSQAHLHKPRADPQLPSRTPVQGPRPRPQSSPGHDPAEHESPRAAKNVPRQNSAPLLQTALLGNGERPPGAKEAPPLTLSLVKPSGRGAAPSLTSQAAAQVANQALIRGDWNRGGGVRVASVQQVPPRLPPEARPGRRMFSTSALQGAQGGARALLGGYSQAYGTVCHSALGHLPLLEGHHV
Sequence of G protein-coupled receptor kinase 4 (Homo sapiens) (P32298 whole entry, looked up): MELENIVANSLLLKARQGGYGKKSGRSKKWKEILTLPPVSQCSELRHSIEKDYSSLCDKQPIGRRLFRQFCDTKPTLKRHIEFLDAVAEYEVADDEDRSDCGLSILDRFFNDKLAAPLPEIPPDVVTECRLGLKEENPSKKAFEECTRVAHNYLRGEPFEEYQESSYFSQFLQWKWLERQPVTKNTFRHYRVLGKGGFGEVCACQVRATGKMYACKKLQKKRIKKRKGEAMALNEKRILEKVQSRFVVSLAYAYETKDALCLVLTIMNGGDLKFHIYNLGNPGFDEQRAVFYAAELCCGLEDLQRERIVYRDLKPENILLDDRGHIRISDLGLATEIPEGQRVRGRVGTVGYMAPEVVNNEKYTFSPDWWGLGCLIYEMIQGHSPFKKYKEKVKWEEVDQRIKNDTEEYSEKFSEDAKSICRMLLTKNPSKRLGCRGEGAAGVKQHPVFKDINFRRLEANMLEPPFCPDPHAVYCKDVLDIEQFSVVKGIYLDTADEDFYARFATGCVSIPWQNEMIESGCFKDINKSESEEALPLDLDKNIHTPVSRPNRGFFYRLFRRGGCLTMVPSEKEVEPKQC
Sequence of Mast/stem cell growth factor receptor Kit (Homo sapiens), P10721 [L576P] (P10721 whole entry L576P): as the sequence (P10721 whole entry D816H) above, with L576P, H816D counted along it
Sequence of Cyclin-dependent kinase 2 homolog (Plasmodium falciparum (isolate 3D7)) (P61075 whole entry, canonical isoform): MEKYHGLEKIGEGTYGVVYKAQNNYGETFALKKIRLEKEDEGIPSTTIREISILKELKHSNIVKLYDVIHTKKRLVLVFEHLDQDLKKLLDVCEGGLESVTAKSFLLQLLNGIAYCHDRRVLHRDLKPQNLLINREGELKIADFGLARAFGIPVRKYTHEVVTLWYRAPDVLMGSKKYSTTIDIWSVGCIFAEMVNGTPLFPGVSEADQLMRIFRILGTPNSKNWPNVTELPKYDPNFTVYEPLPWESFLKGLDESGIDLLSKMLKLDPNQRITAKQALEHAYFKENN

CCc1ccccc1C(=O)Nc1n[nH]c2c(C)c(F)c(C3C(C#N)=C(C)N(C)C(C)=C3C#N)cc12 [BAY-3827]
residual activity [1]: 100% | residual activity [2]: 90% | residual activity [3]: 70% | residual activity [4]: 81% | residual activity [5]: 100% | residual activity [6]: 100% | residual activity [7]: 100% | residual activity [8]: 91% | residual activity [9]: 100% | residual activity [10]: 96% | residual activity [11]: 100% | residual activity [12]: 100% | residual activity [13]: 100% | residual activity [14]: 100% | residual activity [15]: 100% | residual activity [16]: 44% | residual activity [17]: 100% | residual activity [18]: 100% | residual activity [19]: 99% | residual activity [20]: 74% | residual activity [21]: 98% | residual activity [22]: 2.9% | residual activity [23]: 100% | inhibition [24]: 6.23% | inhibition [25]: 5.01%

CC1=C(C#N)C(c2ccc3c(c2)c(NC(=O)c2ccccc2C)nn3C)C(C#N)=C(C)N1 [BAY-974]
residual activity [1]: 96% | residual activity [2]: 58% | residual activity [3]: 74% | residual activity [4]: 89% | residual activity [5]: 100% | residual activity [6]: 100% | residual activity [7]: 64% | residual activity [8]: 100% | residual activity [9]: 89% | residual activity [10]: 96% | residual activity [11]: 77% | residual activity [12]: 82% | residual activity [13]: 100% | residual activity [14]: 93% | residual activity [15]: 84% | residual activity [16]: 91% | residual activity [17]: 76% | residual activity [18]: 100% | residual activity [19]: 100% | residual activity [20]: 81% | residual activity [21]: 100% | residual activity [22]: 100% | residual activity [23]: 72% | inhibition [24]: 0.94% | inhibition [25]: 14.4%
